Patent publication US20230346735A1, “Nutritional Composition Comprising Carnitine and Method for Treating or Preventing an Infection in a Mammal” (priority 2020, published 2023)

Key:
[1] = tested on: TMPRSS2; test: TMPRSS2 mRNA expression in Calu-3, RT real-time PCR; format: cell-based, human; conditions: 24 hr
Experimental: To quantify the human gene expression, Calu-3 seeded in a 12-well plate (220,000 cells) were stimulated with 100 uM, 500 uM and 1000 uM Carnitine alone for 24 h. RNA was extracted using TRIzol (Qiagen) as per standard protocol and total RNA was reverse transcribed using SuperScript II RT (Invitrogen). Expression levels of ACE-2 and TMPRSS2 were evaluated by SYBR real-time PCR using gene-specific primers as previously reported (Ma et al., Eye 2020;34:1212). GAPDH was used as an internal normalizer. […] Fold change in expression relative to that in untreated cells was determined using the standard ddCt method.

[2] = tested on: ACE-2; test: ACE-2 surface protein in Calu-3 cells, flow cytometry; format: cell-based, human; conditions: Calu-3, 100 uM, 24-hr pre-treatment
Experimental: ACE-2 surface expression protein in Calu-3 cells was evaluated using FACS flow cytometry sorting. […] Cells were detached with PBS/EDTA at room temperature. FBS-containing growth media was added to cells to inactivate TE. Cells were spun for 5 min at […]. Supernatant was removed and cells were washed twice in flow buffer (PBS+0.2% FBS). Between 100,000-200,000 cells were stained for ACE-2 and BST2 (absent in Calu-3and used as a control) for 30 min on ice using goat anti-ACE-2 (R&D Systems; AF933) and PE-conjugated BST2 (BioLegend; Cat # 348406). Cells were washed once and stained with Alexa Fluor 647 donkey anti-goat for 30 min on ice. Cells were washed once, resuspended in PBS/EDTA and samples were acquired on a FACS LSR Fortessa cytometer (BD Bioscience). Data were analyzed using Flowjo (Version 10.1).
The testing was repeated with D-Carnitine as well. Cells were either stained for ACE2 using either anti-ACE2 Ab, anti-BST2 Ab or the combination or both followed by secondary Ab isotype. […] The table represents the fluorescence counts.

[3] = tested on: ACE-1; test: ACE-1 protein and mRNA in rat lung tissue; format: in vivo; conditions: exercised rats
Source text: After a week of the adaptation period, the rats were divided into eight equal groups containing seven rats each. The initial body weights of the rats were similar in all the groups (214.53 grams ± 4.67; P > 0.05).
Groups 1 and 2 were not subjected to an exercise routine. Groups 3-8 were subjected to an exercise regimen consisting of a week training period with an incremental exercise capacity described below. After the week training period the exercise regimen followed was each rat in Groups 3-8 were subjected to 6 weeks of running at 25 m/min during 45 min […]. […] These correspond to 0, 250, 500, 1000, 2000 and 4000 mg per day for humans, respectively.
To determine the protein accumulation in the liver, muscle and lung samples, a Western Blotting test was used. Each of the tissue samples of the same group were pooled, homogenized, and sonicated in lysis buffer supplemented with 1X protease and phosphatase inhibitor cocktail (#5872, Cell Signaling). Total protein content was detected with Qubit 2.0 Fluorometer according to the manufacturer’s protocol (Invitrogen, Life Technologies Corporation, Carlsbad, CA, USA). […] Protein levels were analyzed densitometrically using an image analysis system (Image J; National Institute of Health, Bethesda, MD, USA), corrected with values determined on β-actin blots and expressed as relative values compared with the control group. […]

Compound: C[N+](C)(C)C[C@H](O)CC(=O)[O-] [L-carnitine]
- TMPRSS2 mRNA decrease ([1]; Calu-3, 500 uM): at least 75%
- TMPRSS2 mRNA increase ([1]; Calu-3, between 50-100 uM): 1.5-4 fold
- decrease in the ACE-2 protein at the cell surface [2]: about 75%
- ACE-1 mRNA levels ([3]; compared to the exercise control, without reaching the control levels): increased
- ACE-1 protein levels ([3]; lung, FIG. 6A, significantly lower than the baseline control levels): increase
